Data published in PMC8323883, “PlzA is a bifunctional c-di-GMP biosensor that promotes tick and mammalian host-adaptation of Borrelia burgdorferi” (PLoS Pathogens, 2021).

Target: T1, PlzA (BB0733) (Borreliella burgdorferi, UniProt O51675)
T1 construct: gene BB_0733; PilZN3-PilZ domains
Assay: SAXS with and without ligand (Kratky plots)
Type: binding
Settings: 33-135 µM PlzA, 270 µM c-di-GMP; 500 mM NaCl, 20 mM Na2HPO4, pH 7.4; ligand-induced conformational change

T1 sequence (O51675 entry or part of it): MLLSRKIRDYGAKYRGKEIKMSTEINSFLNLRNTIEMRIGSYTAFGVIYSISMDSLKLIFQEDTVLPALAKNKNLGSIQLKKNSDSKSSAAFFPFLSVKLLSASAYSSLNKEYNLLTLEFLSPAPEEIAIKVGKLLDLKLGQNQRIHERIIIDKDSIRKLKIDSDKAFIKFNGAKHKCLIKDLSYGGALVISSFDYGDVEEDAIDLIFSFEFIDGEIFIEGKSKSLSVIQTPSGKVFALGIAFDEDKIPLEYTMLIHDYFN

In the case of `Nc1nc2c(ncn2[C@@H]2O[C@@H]3COP(=O)(O)O[C@H]4[C@@H](O)[C@H](n5cnc6c(=O)[nH]c(N)nc65)O[C@@H]4COP(=O)(O)O[C@H]3[C@H]2O)c(=O)[nH]1` [c-di-GMP, bis-(3′-5′)-cyclic dimeric guanosine monophosphate], the “SAXS with and without ligand (Kratky plots)” value is reported as “confirming a major structural rearrangement upon binding of c-di-GMP”.
